“And” between values parts separate entries of the source, which are not always exact repeats. Equal entries are not always repeated.
Assays:
[1] = test system: PZ-HPV-7 human prostatic epithelial cells; test: Cell proliferation, MTT assay; type: cell-based
Method: (§1) PZ-HPV-7, a human prostate epithelial cell line derived from normal peripheral zone tissue and transfected with human papillomavirus type 18, was obtained from the American Type Culture Collection (ATCC). Cells were grown in K-SFM medium supplemented with 100 U/mL penicillin, […], streptomycin 5 ng/ml, EGF human recombinant and 50 µg/mL BPE in 75-cm^2 flasks at 37° C. in a humidified atmosphere of […]. The culture medium was renewed every 2 days and cells were sub-cultured every 6 days. For the experiments, cells were seeded in 24-well plates at a density of 1×10^4 cells/well. After 24 hours and 48 hours, when cells were 80% confluent, KMUP-1 (1-100 μM) was added to the 24-well plates. Cell proliferation was measured using MTT assay (3-[4,5-dimethylthiazol-2-yl]-2,5-diphenyl-tetrazolium bromide, Sigma). The trypan blue […] exclusion assay was performed to determine the proportion of living and dead cells in 24 hours and 48 hours after treatment. After 24 hours and 48 hours of treatment with KMUP-1 (1-100 μM), attached cells were collected by trypsinization. Cells were counted in a hemocytometer using equal volume of cell suspension and trypan blue solution (0.2% in PBS).

[2] = test system: PZ-HPV-7 human prostatic epithelial cells; test: Trypan blue exclusion assay; type: cell-based; settings: 1-100 μM, 24 and 48 hours
Method: as §1

[3] = test system: PKA; test: Western blot of PKA expression in rat prostate
Method: Prostate strips were incubated with KMUP-1 (10-100 μM), sildenafil (100 μM) and zaprinast (100 μM) in 10 mL Tyrode solution aerated with 95% O2 and 5% CO2 for 1 hour. To examine the possible mechanisms of KMUP-1 action, the rat prostate were pretreated with ODQ (10 μM), SQ22536 (10 μM) and RP-8pCPT-cGMPs (10 μM) for 30 minutes prior to the addition of KMUP-1 (100 μM).
In order to examine the expression of Rho kinase in prostate, the prostate strips were pre-incubated with phenylephrine (10 μM) for 30 minutes. After a pre-treatment of phenylephrine, KMUP-1 (10-100 μM) and Y-27632 (10 μM) were further incubated for 30 minutes. After the incubation time, the prostate were extracted with protein extraction reagent (Pierce Biotechnology, Inc., Rockford, Ill., USA.). The PZ-HPV-7 cells were incubated with and without KMUP-1 (0.1-10 μM) at 30 minutes, 8 and 24 hours. They were then washed rapidly with ice-cold PBS, incubated with protein extraction reagent, and scraped from the plates. The prostate tissues and cells were sonicated three times for 10 second each time and centrifuged at 13,000 rpm at 4° C. for 30 minutes. The protein concentrations of supernatants were determined, using bovine serum albumin as the standard. […] The intensity of the bands was measured by densitometry.

[4] = test system: phenylephrine (10 μM) pre-contracted rat isolated prostate; test: Relaxation of phenylephrine pre-contracted rat isolated prostate strips (isometric tension)
Method: The rat isolated prostate tissue was prepared as previously described with modifications^[10]. Briefly, Wistar rats (300-400 g) were killed with pentobarbital sodium (30 mg/kg) and the ventral part of their prostates were quickly excised. […] O2 and 5% CO2.
Isometric tension was recorded with a force displacement transducer (UGO BASILE, Model 7004, Italy). After the equilibration period, the strips were primed twice by adding 10 μM of the agonist, phenylephrine, to reach 80-100% of maximum contraction. […] The relaxation on rat prostate by KMUP-1 (0.01-100 μM) and tamsulosin (0.001 nM-100 μM) were also tested by their combination with sildenafil (0.1 μM), respectively. In isolated prostate strips, while stable constriction to phenylephrine was reached, sildenafil (0.1 μM) was pre-incubation for 30 minutes, before the cumulative addition of KMUP-1 (0.01-100 μM) or tamsulosin (0.001 nM-100 μM) to isolated prostate strips. In another experiment, to examine the possible mechanism of action of KMUP-1, rat prostates were pretreated with ODQ (1H-[1,2,4]oxadiazolo[4,3-a]quinoxalin-1-one, 10 μM, sGC inhibitor), RP-8pCPT-cGMPs (10 μM, PKG inhibitor), glibenclamide (10 μM, KATP channel blocker), 4-AP (4-aminopyridine, 100 μM, voltage-dependent K^+ channel blocker), apamin (1 μM, Ca^2+-dependent K^+ channel blocker) and charybdotoxin (ChTX) (0.1 μM, Ca^2+-dependent K^+ channel blocker) for 30 minutes before addition of KMUP-1 (100 μM).

For `Cn1c(=O)c2c(ncn2CCN2CCN(c3ccccc3Cl)CC2)n(C)c1=O` [KMUP-1, 7-[2-[4-(2-Chlorobenzene)piperazinyl]ethyl]-1,3-dimethyl xanthine], the cell growth ([1]; 1 μM, 24 hours) was 82.00±3.03 % of control, the cell growth ([1]; 1 μM, 48 hours) was 70.00±2.23 % of control and the cell growth ([1]; 10 μM, 24 hours) was 80.03±1.52 % of control. The cell growth ([1]; 10 μM, 48 hours) was 56.00±2.72 % of control, the cell growth ([1]; 100 μM, 24 hours) was 79.00±1.35 % of control and the cell growth ([1]; 100 μM, 48 hours) was 47.00±1.8 % of control. The “PZ-HPV-7 cell growth, Trypan blue assay” value [2] was “dose- and time-dependent inhibition”, the “expression of PKA” value ([3]; 100 μM) was “significantly induces” and the “expression of PKA” value ([3]; KMUP-1 100 μM with SQ22536 10 μM) was “reversed”. For the same compound, the relaxation ([4]; 10 μM, 1 hour, phenylephrine 10 μM pre-contracted) was 110.00±5.09%, the relaxation activity ([4]; 100 μM combined with sildenafil 0.1 μM) was 190.00±10.14% and the relaxation ability ([4]; 100 μM, phenylephrine 10 μM pre-contracted) was 179.00±5.35% and 179.00±5.3%. It also gave a relaxation ([4]; KMUP-1 100 μM, pre-incubation with ODQ 10 μM) of 112.50±7.84%, a relaxation ([4]; KMUP-1 100 μM, pre-incubation with RP-8pCPT-cGMPs 10 μM) of 128.00±4.41% and a relaxation ([4]; KMUP-1 100 μM, with 4-AP 100 μM) of 122.00±3.74%. For the same compound, the relaxation ([4]; KMUP-1 100 μM, with apamin 1 μM) was 126.00±9.09%, the relaxation ([4]; KMUP-1 100 μM, with charybdotoxin 0.1 μM) was 138.00±7.01% and the relaxation ([4]; KMUP-1 100 μM, with glibenclamide 10 μM) was 115.00±7.07%.
